In ChEMBL document CHEMBL4402592, “Targeting Endoplasmic Reticulum α-Glucosidase I with a Single-Dose Iminosugar Treatment Protects against Lethal Influenza and Dengue Virus Infections” (J Med Chem, 2020):
Calls of active or inactive are those of the source. The rule behind the calls is not given here.

Legend:
[1] = Toxicity in po dosed cynomolgus monkey assessed as maximum tolerated dose administered via gavage as single dose; assay type: organism-based, Macaca fascicularis; details: in vivo
Mus musculus [2] = assay: In vivo inhibition of ERGlu1 in BALB/c mouse assessed as increase in tri-glucosylated FOS level in serum at >250 mg/kg, po administered via gavage as single dose at 8 hrs post-infection measured at 8 hrs post-dose by NP-HPLC analysis; assay type: functional, organism-based
Mus musculus [3] = assay: In vivo inhibition of ERGlu2 in BALB/c mouse assessed as increase in mono-glucosylated FOS level in spleen at 100 mg/kg, po administered via gavage starting at 8 hrs post-infection and continuing tid for 5 days and measured at 8 hrs post-final dose by NP-HPLC analysis; assay type: functional, organism-based
dengue virus type 2 [4] = assay: Antiviral activity against Dengue virus 2 S221 infected in DENV antibody dependent enhancement AG129 mouse model assessed as reduction in TNF-lapha level at 750 mg/kg, po administered via gavage as two doses at 36 hrs and 52 hrs post infection measured at 60 hrs post-infection by electrochemiluminescence based method; assay type: functional, organism-based
Influenza A virus [5] = assay: Antiviral activity against Influenza A virus (A/Texas/36/1991(H1N1)) infected in BALB/c mouse assessed as animal survival at 250 mg/kg, po administered via gavage as three doses at 8, 32 and 56 hrs post infection (reference value: 0%); assay type: functional
Mus musculus [6] = assay: In vivo inhibition of ERGlu2 in BALB/c mouse assessed as increase in mono-glucosylated FOS level in lung at 20 mg/kg, po administered via gavage starting at 8 hrs post-infection and continuing tid for 5 days and measured at 8 hrs post-final dose by NP-HPLC analysis; assay type: functional, organism-based
Influenza A virus [7] = assay: Antiviral activity against Influenza A virus (A/Texas/36/1991(H1N1)) infected in BALB/c mouse assessed as median death time at 500 mg/kg, po administered via gavage as single dose at 8 hrs post infection; assay type: functional
dengue virus type 2 [8] = assay: Antiviral activity against Dengue virus 2 S221 infected in DENV antibody dependent enhancement AG129 mouse model assessed as reduction in IFN-gamma level at 750 mg/kg, po administered via gavage as two doses at 36 hrs and 52 hrs post infection measured at 60 hrs post-infection by electrochemiluminescence based method; assay type: functional, organism-based
Influenza A virus [9] = assay: Antiviral activity against Influenza A virus (A/Texas/36/1991(H1N1)) infected in BALB/c mouse assessed as median death time at 250 mg/kg, po administered via gavage as two doses at 8 hrs and 32 hrs post infection (reference value: 9 days); assay type: functional
dengue virus type 2 [10] = assay: Antiviral activity against Dengue virus 2 S221 infected in DENV antibody dependent enhancement AG129 mouse model assessed as reduction in IL-12/IL-23p40 level at 750 mg/kg, po administered via gavage as two doses at 36 hrs and 52 hrs post infection measured at 72 hrs post-infection by electrochemiluminescence based method; assay type: functional, organism-based
Influenza A virus [11] = assay: Antiviral activity against Influenza A virus (A/Texas/36/1991(H1N1)) infected in BALB/c mouse assessed as animal survival at 250 mg/kg, po administered via gavage as two doses at 8 and 32 hrs post infection (reference value: 0%); assay type: functional
dengue virus type 2 [12] = assay: Antiviral activity against Dengue virus 2 S221 infected in DENV antibody dependent enhancement AG129 mouse model assessed as reduction in viremia at 750 mg/kg, po administered via gavage as single dose at 36 hrs post infection measured within 8 hrs by qRT-PCR analysis; assay type: functional
dengue virus type 2 [13] = assay: Antiviral activity against Dengue virus 2 S221 infected in DENV antibody dependent enhancement AG129 mouse model assessed as reduction in KC-GRO level at 750 mg/kg, po administered via gavage as single dose at 36 hrs post infection measured at 60 hrs post-infection by electrochemiluminescence based method; assay type: functional, organism-based
dengue virus type 2 [14] = assay: Antiviral activity against Dengue virus 2 S221 infected in DENV antibody dependent enhancement AG129 mouse model assessed as animal survival at 375 mg/kg, po administered via gavage as two doses at 16 and 32 hrs post infection (reference value: 4%); assay type: functional
Mus musculus [15] = assay: In vivo inhibition of ERGlu1 in BALB/c mouse assessed as increase in tri-glucosylated FOS level in spleen at 750 mg/kg, po administered via gavage as single dose and measured after 16 hrs by NP-HPLC analysis; assay type: functional, organism-based
dengue virus type 2 [16] = assay: Antiviral activity against Dengue virus 2 S221 infected in DENV antibody dependent enhancement AG129 mouse model assessed as animal survival at 750 mg/kg, po administered via gavage as two doses at 8 and 24 hrs post infection (reference value: 4%); assay type: functional
dengue virus type 2 [17] = assay: Antiviral activity against Dengue virus 2 S221 infected in DENV antibody dependent enhancement AG129 mouse model assessed as animal survival at 750 mg/kg, po administered via gavage as two doses at 36 and 52 hrs post infection (reference value: 4%); assay type: functional
Influenza A virus [18] = assay: Antiviral activity against Influenza A virus (A/Texas/36/1991(H1N1)) infected in BALB/c mouse assessed as animal survival at 750 mg/kg, po administered via gavage as single dose at 16 hrs post infection (reference value: 0%); assay type: functional
Influenza A virus [19] = assay: Antiviral activity against Influenza A virus (A/Texas/36/1991(H1N1)) infected in BALB/c mouse assessed as median death time at 500 mg/kg, po administered via gavage as single dose at 24 hrs post infection (reference value: 8.5 days); assay type: functional
dengue virus type 2 [20] = assay: Antiviral activity against Dengue virus 2 S221 infected in DENV antibody dependent enhancement AG129 mouse model assessed as reduction in IL-10 level at 750 mg/kg, po administered via gavage as two doses at 36 hrs and 52 hrs post infection measured at 60 hrs post-infection by electrochemiluminescence based method; assay type: functional, organism-based
dengue virus type 2 [21] = assay: Antiviral activity against Dengue virus 2 S221 infected in DENV antibody dependent enhancement AG129 mouse model assessed as animal survival at 250 mg/kg, po administered via gavage as two doses at 36 and 52 hrs post infection (reference value: 4%); assay type: functional
dengue virus type 2 [22] = assay: Antiviral activity against Dengue virus 2 S221 infected in DENV antibody dependent enhancement AG129 mouse model assessed as animal survival at 375 mg/kg, po administered via gavage as two doses at 8 and 24 hrs post infection (reference value: 4%); assay type: functional
Influenza A virus [23] = assay: Antiviral activity against Influenza A virus (A/Texas/36/1991(H1N1)) infected in BALB/c mouse assessed as median death time at 750 mg/kg, po administered via gavage as single dose at 16 hrs post infection (reference value: 8.5 days); assay type: functional
Influenza A virus [24] = assay: Antiviral activity against Influenza A virus (A/Texas/36/1991(H1N1)) infected in BALB/c mouse assessed as median death time at 250 mg/kg, po administered via gavage as single dose at 8 hrs post infection; assay type: functional
Influenza A virus [25] = assay: Antiviral activity against Influenza A virus (A/Texas/36/1991(H1N1)) infected in BALB/c mouse assessed as median death time at 750 mg/kg, po administered via gavage as three dosed at 8, 32 and 56 hrs post infection (reference value: 8 days); assay type: functional
dengue virus type 2 [26] = assay: Antiviral activity against Dengue virus 2 S221 infected in DENV antibody dependent enhancement AG129 mouse model assessed as reduction in KC-GRO level at 750 mg/kg, po administered via gavage as two doses at 36 hrs and 52 hrs post infection measured at 72 hrs post-infection by electrochemiluminescence based method; assay type: functional, organism-based

COCCCCCCCCCN1C[C@H](O)[C@@H](O)[C@H](O)[C@H]1CO.Cl
MTD [1]: 258 mg/kg | inhibition (Mus musculus [2]): Active | inhibition (Mus musculus [3]): Active | Activity (dengue virus type 2 [4]): Active | survival at 250 mg/kg (Influenza A virus [5]): 0% | inhibition (Mus musculus [6]): Active | Time (Influenza A virus [7]): 12.5 days | Activity (dengue virus type 2 [8]): Active | Time (Influenza A virus [9]): >14 days | Activity (dengue virus type 2 [10]): Active | survival at 250 mg/kg (Influenza A virus [11]): 60% | log(activity) (dengue virus type 2 [12]): >1 | Activity (dengue virus type 2 [13]): Active | survival at 375 mg/kg (dengue virus type 2 [14]): 100% | inhibition (Mus musculus [15]): Active | survival at 750 mg/kg (dengue virus type 2 [16]): 94% | survival at 750 mg/kg (dengue virus type 2 [17]): 100% | survival at 750 mg/kg (Influenza A virus [18]): 70% | Time (Influenza A virus [19]): 11 days | Activity (dengue virus type 2 [20]): Active | survival at 250 mg/kg (dengue virus type 2 [21]): 100% | survival at 375 mg/kg (dengue virus type 2 [22]): 82% | Time (Influenza A virus [23]): >14 days | Time (Influenza A virus [24]): 8 days | Time (Influenza A virus [25]): >14 days | Activity (dengue virus type 2 [26]): Active
